Experiments:
MCF-7 cells = test: In vitro cytotoxic activity, MTT assay, MCF-7; assay type: cell-based, human
Protocol: (§1) MCF-7 (human breast cancer) cells, obtained from Sigma-Aldrich Chemie GmbH, Taufkirchen, Germany, were propagated in RPMI-1640 supplemented with 10% heat inactivated FBS, 2 mM L-glutamine, and 1% standard antibiotic solution. Cells were incubated in a 5% CO2 humidified incubator at 37 °C and passaged bi-weekly. The in vitro anti-proliferative activity of the newly synthesized derivatives was assayed using standard MTT technique. Results were expressed as IC50. Experiments were repeated at least in triplicate, to obtain good reproducibility between replicate wells with standard errors below 10%. Furthermore, the cytotoxic effects of the prepared derivatives were evaluated against normal nonmalignant cells, non-tumorigenic MCF-10A, in order to find out if the synthesized derivatives have toxicity against normal cells. Additionally, results were compared with reference compounds (cisplatin and milaplatin) as positive controls.

MCF-10A cells = test: In vitro cytotoxicity against normal non-tumorigenic cells, MTT assay; assay type: cell-based; conditions: Homo sapiens, normal non-tumorigenic MCF-10A cells, read-out: IC50 (Mean ± SEM) MCF-10A
Protocol: as §1

MCF-7 xenografts = test: In vivo breast cancer mouse xenograft model; parameters: species or system nude mice
Protocol: The breast cancer xenograft model protocol was approved by the Institutional Animal Use and Care Committee of the University of Alabama at Birmingham (50-01-05-08B). Female athymic pathogen-free nude mice (nu/nu, 4–6 weeks) were used. Firstly, MCF-7 xenografts were initiated by implanting pellets slowly releasing estrogen for two months (1.7mg 17β-estradiol/pellet) subcutaneously in the female nude mice. After 24 h, confluent MCF-7 cells were harvested, washed two times with serum-free medium, re-suspended and injected subcutaneously (s.c.) (5 × 10^6 cells, total volume 0.2 mL) into the left inguinal area of the mice. Caliper measurement was used to measure tumor growth in two perpendicular diameters of the implant after 48 h, and its volume was determined. Mice grafted with MCF-7 were divided into different groups (7–10 mice/group). Untreated mice received the solvent only. Treated groups received different prepared derivatives as previously described.

[1] = biological target: T1, p53 ubiquitination (GST-tagged HDM2) (Homo sapiens, UniProt Q00987); test: In vitro p53 ubiquitination assay; assay type: biochemical
T1 construct: GS4b-MDM2 RING beads were prepared as above and were used in place of the full-length MDM2; made in house; host or cells: Escherichia coli BL21
T1 sequence (Q00987 whole entry): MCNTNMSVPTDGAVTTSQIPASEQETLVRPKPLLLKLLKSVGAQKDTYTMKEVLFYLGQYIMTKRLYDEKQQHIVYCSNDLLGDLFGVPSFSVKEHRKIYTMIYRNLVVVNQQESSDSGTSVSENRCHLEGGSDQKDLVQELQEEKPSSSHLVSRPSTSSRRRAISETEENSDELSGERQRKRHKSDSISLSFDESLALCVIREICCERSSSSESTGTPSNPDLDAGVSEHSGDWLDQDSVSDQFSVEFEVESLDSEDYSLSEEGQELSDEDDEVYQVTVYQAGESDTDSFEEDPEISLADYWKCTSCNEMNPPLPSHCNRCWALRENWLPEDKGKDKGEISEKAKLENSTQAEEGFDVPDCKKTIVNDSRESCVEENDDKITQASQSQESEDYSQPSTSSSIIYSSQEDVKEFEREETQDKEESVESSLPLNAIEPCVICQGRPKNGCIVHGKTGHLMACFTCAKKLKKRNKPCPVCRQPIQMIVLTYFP
Protocol: Different prepared derivatives were evaluated for their inhibitory potential against p53 ubiquitination. The method is based on incubating different compounds with GST-tagged HDM2, immobilized on glutathione-Sepharose, p53, ubiquitin, E1 and E2 (UbcH5B) ligases. The buffer contained ATP as detailed by Gomha and Abdelaziz. The reaction products were then resolved by SDSPAGE and p53 ubiquitination and were quantified by Western blotting using an anti-p53 antibody.
Briefly, rGSH-S-transferase-tagged MDM2 (GST-MDM2) was expressed in Escherichia coli BL21 cells using 1 mM isopropyl-thio-b-D-galactoside for 3 h. The enzyme was then purified on glutathione-sepharose beads (Amersham). Beads were washed with Tris (pH 7.5). The reaction contained fluorescent ubiquitin (5 µg; Invitrogen), 50 ng mammalian E1 (Enzo), 200 ng human rUbcH5B E2 (Enzo), 200 ng His-p53 (Enzo) and buffer [50 mM Tris pH 8,2 mM dithiothreitol, 5 mM MgCl2, 2 mM adenosine triphosphate (ATP)]. The MPD-compound or control mixture was dose-titrated onto GS4b-MDM2 beads. Incubation at 37 °C was followed by shaking (1200 rpm, 1 h). The reaction was terminated with 3× sodium dodecyl sulfate sample buffer. Finally, unbound fluorescent ubiquitin was drained and the total fluorescent ubiquitin signal was measured using a plate reader (Safire).
The procedure was performed similar to the aforementioned protocol except that 5 µg unlabeled ubiquitin (Enzo) was used. Following incubation, resolving of reaction products was performed using sodium dodecyl sulfate PGE. Analysis was done by western blotting using anti-p53 DO-1. For the MDM2 RING auto-ubiquitination assay, GS4b-MDM2 RING beads were prepared as above and were used in place of the full-length MDM2.

p53 ubiquitination = test: In vivo ubiquitination of p53 (transfected cells); assay type: cell-based
Protocol: In vivo ubiquitination of p53 was assayed according to [38] Cells were grown for 24 h (50% confluency) before transfection of 1 µg p53, 4 µg MDM2 and 1 µg HIS-ubiquitin with Gene Juice reagent. Grown for another 20 h, cells were exposed to prepared derivatives or controls for 6 h and MG132 for 4 h, then washed and collected in PBS, where 5% of the solution was kept as an input. The remaining pelleted cells (95% after centrifugation) were lysed in 700 µL of ubiquitin buffer A (6 M guanidinium HCl, 300 mM NaCl, 50 mM phosphate pH 8.0, 100 µg/mL N-ethylmaleimide), and sonicated for 5 min at 20% amplitude. Lysates were incubated overnight with Invitrogen Dynabeads His-Tag matrix and washed once with ubiquitin buffers A, B, C and phosphate buffered saline (ubiquitin buffer B: Mix ubiquitin buffer A and ubiquitin buffer C 1:1; ubiquitin buffer C: 300 mM NaCl, 50 mM phosphate pH 8.0, 100 µg/mL N-ethylmaleimide). The washed lysates were resolved by 8% sodium dodecyl sulfate–polyacrylamide gel electrophoresis, followed by immunoblotting with a p53 (DO-1) antibody.

EGFR = EGFR (Homo sapiens, UniProt P00533); test: EGFR kinase inhibition assay; assay type: biochemical; conditions: 8 μM ATP, poly(Glu,Tyr)4:1 substrate; read-out: IC50 (Mean ± SEM) EGFR
Sequence of EGFR (P00533 25-1210): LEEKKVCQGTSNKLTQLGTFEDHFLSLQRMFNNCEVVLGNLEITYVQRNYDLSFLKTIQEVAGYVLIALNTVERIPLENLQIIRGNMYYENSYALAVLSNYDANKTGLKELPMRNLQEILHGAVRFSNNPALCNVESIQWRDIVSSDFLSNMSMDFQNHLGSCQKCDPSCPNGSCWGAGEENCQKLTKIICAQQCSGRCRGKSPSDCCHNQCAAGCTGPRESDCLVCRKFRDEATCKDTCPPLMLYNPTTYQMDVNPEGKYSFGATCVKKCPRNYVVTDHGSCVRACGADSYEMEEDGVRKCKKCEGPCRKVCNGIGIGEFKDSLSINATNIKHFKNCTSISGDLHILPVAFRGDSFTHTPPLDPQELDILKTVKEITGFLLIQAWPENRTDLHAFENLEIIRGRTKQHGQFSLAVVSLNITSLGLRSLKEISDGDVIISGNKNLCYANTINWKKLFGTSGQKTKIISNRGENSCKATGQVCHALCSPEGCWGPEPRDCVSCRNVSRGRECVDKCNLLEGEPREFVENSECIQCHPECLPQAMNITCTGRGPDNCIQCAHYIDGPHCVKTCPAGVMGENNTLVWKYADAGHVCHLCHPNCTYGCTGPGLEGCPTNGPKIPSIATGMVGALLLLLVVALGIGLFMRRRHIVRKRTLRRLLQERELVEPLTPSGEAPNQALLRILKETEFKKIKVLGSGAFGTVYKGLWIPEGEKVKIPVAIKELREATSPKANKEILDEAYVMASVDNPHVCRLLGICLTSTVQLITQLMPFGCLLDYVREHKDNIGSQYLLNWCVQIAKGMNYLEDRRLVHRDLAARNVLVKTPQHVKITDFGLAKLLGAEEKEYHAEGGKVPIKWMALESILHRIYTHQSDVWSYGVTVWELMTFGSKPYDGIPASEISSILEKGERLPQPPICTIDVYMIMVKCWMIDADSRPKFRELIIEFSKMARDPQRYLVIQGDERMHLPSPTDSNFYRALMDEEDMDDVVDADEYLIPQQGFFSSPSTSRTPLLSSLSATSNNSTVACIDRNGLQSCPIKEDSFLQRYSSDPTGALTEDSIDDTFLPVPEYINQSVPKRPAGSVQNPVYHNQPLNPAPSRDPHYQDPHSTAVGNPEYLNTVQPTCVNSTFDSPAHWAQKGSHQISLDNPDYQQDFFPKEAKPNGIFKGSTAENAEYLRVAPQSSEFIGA
Protocol: (§2) The EGFR and VEGFR-2 kinase activities were assayed as previously described. The assay was performed in 96-well plates pre-coated with 20 μg mL^−1 poly (Glu, Tyr)4:1 (Sigma-Aldrich Chemie GmbH, Taufkirchen, Germany) as a substrate. In each well, 85 μL of an 8 μM ATP solution and 10 μL of the compound were added at varying concentrations. Experiments were repeated three times. Reactions started with 5 μL of different kinases and incubation for 1 h at 37 °C. Plates were 3X-washed with PBS/0.1% Tween 20. Accordingly, 100 μL of anti-phosphotyrosine (PY99; 1:500 dilutions) antibody was added, and plates were incubated for another hour at room temperature. Plates were then 3X-washed, and addition of goat anti-mouse IgG horseradish peroxidase (100 μL; 1:2000 dilution) diluted in T-PBS containing 5 mg mL^−1 BSA followed. Plates were further incubated at room temperature for another hour, and then 3X-washed. Finally, 100 μL (developing solution, 0.03% H2O2, 2 mg mL^−1 o-phenylenediamine/citrate buffer, 0.1 M, pH 5.5) was added and incubation continued until color development. The reaction was stopped by 100 μL of 2M H2SO4, and the absorption was measured at 492 nm using a multiwell spectrophotometer (VERSAmax™). The inhibition rate (%) was calculated using the equation:Inhibition rate (%) = [1 − (A492/A492Control)] × 100%(1)

VEGFR-2 = VEGFR-2 (Homo sapiens, UniProt P35968); test: VEGFR-2 kinase inhibition assay; assay type: biochemical; conditions: 8 μM ATP, poly(Glu,Tyr)4:1 substrate; read-out: IC50 (Mean ± SEM) VEGFR-2
Sequence of VEGFR-2 (P35968 20-1356): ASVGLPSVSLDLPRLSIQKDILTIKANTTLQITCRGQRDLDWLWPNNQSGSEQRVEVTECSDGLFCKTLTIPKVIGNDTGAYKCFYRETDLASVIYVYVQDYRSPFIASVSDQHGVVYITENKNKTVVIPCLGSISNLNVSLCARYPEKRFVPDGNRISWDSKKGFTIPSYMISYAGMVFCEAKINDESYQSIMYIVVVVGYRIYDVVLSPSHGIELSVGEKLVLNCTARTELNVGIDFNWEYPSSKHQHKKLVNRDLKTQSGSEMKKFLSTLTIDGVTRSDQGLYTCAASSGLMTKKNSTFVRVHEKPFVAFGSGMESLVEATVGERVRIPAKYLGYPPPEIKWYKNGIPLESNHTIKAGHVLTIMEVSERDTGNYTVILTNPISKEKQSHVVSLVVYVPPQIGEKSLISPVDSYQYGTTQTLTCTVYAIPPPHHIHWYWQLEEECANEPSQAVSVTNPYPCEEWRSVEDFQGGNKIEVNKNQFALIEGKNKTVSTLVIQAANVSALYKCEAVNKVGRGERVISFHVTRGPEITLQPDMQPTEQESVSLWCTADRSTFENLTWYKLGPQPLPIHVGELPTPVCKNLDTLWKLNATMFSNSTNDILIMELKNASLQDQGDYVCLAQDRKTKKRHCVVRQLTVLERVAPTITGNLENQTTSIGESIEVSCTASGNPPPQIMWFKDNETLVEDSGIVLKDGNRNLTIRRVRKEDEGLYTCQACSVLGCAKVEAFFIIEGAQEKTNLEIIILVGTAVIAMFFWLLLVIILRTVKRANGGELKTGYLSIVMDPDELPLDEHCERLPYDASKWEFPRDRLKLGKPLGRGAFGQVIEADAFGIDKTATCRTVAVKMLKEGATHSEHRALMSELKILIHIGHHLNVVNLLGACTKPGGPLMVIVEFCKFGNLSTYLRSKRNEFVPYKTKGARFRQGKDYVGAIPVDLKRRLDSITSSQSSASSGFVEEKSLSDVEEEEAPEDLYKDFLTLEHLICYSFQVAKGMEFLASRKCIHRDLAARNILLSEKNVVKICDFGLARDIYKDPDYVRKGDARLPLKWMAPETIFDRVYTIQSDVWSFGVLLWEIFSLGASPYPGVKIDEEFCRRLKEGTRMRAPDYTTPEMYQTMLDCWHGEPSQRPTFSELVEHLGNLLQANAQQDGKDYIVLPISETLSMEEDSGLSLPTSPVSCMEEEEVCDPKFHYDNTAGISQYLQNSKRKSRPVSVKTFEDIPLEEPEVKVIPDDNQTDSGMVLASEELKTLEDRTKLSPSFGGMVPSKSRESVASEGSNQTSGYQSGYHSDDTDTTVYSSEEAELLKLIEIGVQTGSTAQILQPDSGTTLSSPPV
Protocol: as §2

## CC12CCC3c4ccc(O)cc4CCC3C1CC1=C2NC(=N)NC1c1ccccc1Cl (stereo not shown) [Compound 5a, 2′-Imino-6′-(2-chlorophenyl)-estra-1(10),2,4,16(17)-tetraien-[17,16-d]-pyrimidino-3-ol]
MCF-7 cells; Homo sapiens, MCF7, MTT assay, MCF-7 cell line, read-out: IC50 (Mean ± SEM) MCF-7
  IC50: 18.38 ± 0.13 µM
MCF-7 cells; ratio of IC50 values, 5a vs 7b
  fold more toxic than the least active compound 7b towards MCF-7: 2.5 fold
MCF-10A cells
  IC50: 211 ± 7.53 µM
MCF-7 xenografts; after 2 days of treatment, vs control animals
  decrease in tumor growth: about 25.36%
MCF-7 xenografts; after 10 days of treatment
  maximal inhibition of tumor growth: 91.1%
MCF-7 xenografts; after 14 days of treatment
  inhibition percentage of tumor growth: 88.7%
[1]; GST-tagged HDM2, p53, ubiquitin, E1 and E2 (UbcH5B), read-out: IC50 (Mean ± SEM) In Vitro p53 Ubiquitination
  IC50: 16.4 ± 0.23 µM
[1]; vs diphenyl imidazole
  fold more active than standard drug, in vitro p53 ubiquitination: 15.8 fold
p53 ubiquitination; cells transfected with p53, MDM2, HIS-ubiquitin, exposed 6 h, read-out: IC50 (Mean ± SEM) In Vivo p53 Ubiquitination
  IC50: 0.22 ± 0.0043 µM
p53 ubiquitination; vs diphenyl imidazole
  fold more active than standard drug, in vivo p53 ubiquitination: 8.6 fold
EGFR
  IC50: 0.086 ± 0.0032 µM
VEGFR-2
  IC50: 0.027 ± 0.0012 µM
other
  melting point: 286 to 288 °C

— paper PMC6385123, “Design, Synthesis, Anticancer Evaluation and Molecular Modeling of Novel Estrogen Derivatives” (Molecules, 2019)
